Reference: PubChem BioAssay AID1963966 (Molecular Pharmacology Branch, DTP, NCI, 2024)

System: 935938-334-R-J1-PDC spheroids with HUVEC/MSC, viability
Test: Anticancer human tumor 935938-334-R-J1-PDC patient-derived small intestine adenocarcinoma cell line growth inhibition [PI3K]
Settings: for IC50: curve of first compound; for viability, T/C: stronger effect = lower value
Outline: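 We assembled tumor spheroids that included a stromal compartment of HUVEC and MSCs, then exposed them to targeted agents alone and together with PI3K pathway inhibitors. Concentration series descended by half-log from clinically achievable Cmax levels. Viability served as the endpoint.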
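Note: compound exposure lasted seven days before viability was read.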
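Throughout, for viability, T/C: percent of vehicle DMSO treated spheroid viability so 100% = untreated.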

Compound: CC1(C)CCC(Nc2ncc(C(F)(F)F)c(-c3c[nH]c4c(P(C)(C)=O)c(C#N)ccc34)n2)CN1 (centres undefined) + Cc1nc(NC(=O)N2CCCC2C(N)=O)sc1-c1ccnc(C(C)(C)C(F)(F)F)c1
- IC50 (second compound 0.0316 µM): < 31.6 nM
- IC50 (second compound 0.1 µM): < 31.6 nM
- IC50 (second compound 0.316 µM): < 31.6 nM
- IC50 (second compound 1 µM): < 31.6 nM
- IC50 (second compound 3.16 µM): < 31.6 nM
- IC50 (second compound 10 µM): < 31.6 nM
- viability, T/C (second compound 0.0316 µM, first compound 0.0316 µM): 31.4%
- viability, T/C (second compound 0.0316 µM, first compound 0.1 µM): 24.9%
- viability, T/C (second compound 0.0316 µM, first compound 0.316 µM): 39.4%
- viability, T/C (second compound 0.0316 µM, first compound 1 µM): 33.7%
- viability, T/C (second compound 0.0316 µM, first compound 3.16 µM): 30.8%
- viability, T/C (second compound 0.0316 µM, first compound 10 µM): 5.69%
- viability, T/C (second compound 0.1 µM, first compound 0.0316 µM): 33.6%
- viability, T/C (second compound 0.1 µM, first compound 0.1 µM): 34.4%
- viability, T/C (second compound 0.1 µM, first compound 0.316 µM): 31.6%
- viability, T/C (second compound 0.1 µM, first compound 1 µM): 32.3%
- viability, T/C (second compound 0.1 µM, first compound 3.16 µM): 36.3%
- viability, T/C (second compound 0.1 µM, first compound 10 µM): 6.9%
- viability, T/C (second compound 0.316 µM, first compound 0.0316 µM): 34.6%
- viability, T/C (second compound 0.316 µM, first compound 0.1 µM): 34.5%
- viability, T/C (second compound 0.316 µM, first compound 0.316 µM): 26.2%
- viability, T/C (second compound 0.316 µM, first compound 1 µM): 29.6%
- viability, T/C (second compound 0.316 µM, first compound 3.16 µM): 27.6%
- viability, T/C (second compound 0.316 µM, first compound 10 µM): 6.74%
- viability, T/C (second compound 1 µM, first compound 0.0316 µM): 38.3%
- viability, T/C (second compound 1 µM, first compound 0.1 µM): 26.2%
- viability, T/C (second compound 1 µM, first compound 0.316 µM): 23.7%
- viability, T/C (second compound 1 µM, first compound 1 µM): 20.8%
- viability, T/C (second compound 1 µM, first compound 3.16 µM): 23.7%
- viability, T/C (second compound 1 µM, first compound 10 µM): 4.15%
- viability, T/C (second compound 3.16 µM, first compound 0.0316 µM): 24.6%
- viability, T/C (second compound 3.16 µM, first compound 0.1 µM): 22.6%
- viability, T/C (second compound 3.16 µM, first compound 0.316 µM): 24.5%
- viability, T/C (second compound 3.16 µM, first compound 1 µM): 25.2%
- viability, T/C (second compound 3.16 µM, first compound 3.16 µM): 25.2%
- viability, T/C (second compound 3.16 µM, first compound 10 µM): 3.91%
- viability, T/C (second compound 10 µM, first compound 0.0316 µM): 25.6%
- viability, T/C (second compound 10 µM, first compound 0.1 µM): 23.8%
- viability, T/C (second compound 10 µM, first compound 0.316 µM): 26.2%
- viability, T/C (second compound 10 µM, first compound 1 µM): 24.7%
- viability, T/C (second compound 10 µM, first compound 3.16 µM): 19.9%
- viability, T/C (second compound 10 µM, first compound 10 µM): 2.1%

Compound: Cn1cnc2c(F)c(Nc3ccc(Br)cc3Cl)c(C(=O)NOCCO)cc21 + Cc1nc(NC(=O)N2CCCC2C(N)=O)sc1-c1ccnc(C(C)(C)C(F)(F)F)c1
- IC50 (second compound 0.0316 µM): 37 nM
- IC50 (second compound 0.1 µM): 29.7 nM
- IC50 (second compound 0.316 µM): 29 nM
- IC50 (second compound 1 µM): 11.6 nM
- IC50 (second compound 3.16 µM): < 9.49 nM
- IC50 (second compound 10 µM): < 9.49 nM
- viability, T/C (second compound 0.0316 µM, first compound 0.00949 µM): 62%
- viability, T/C (second compound 0.0316 µM, first compound 0.03 µM): 54.8%
- viability, T/C (second compound 0.0316 µM, first compound 0.0949 µM): 32.8%
- viability, T/C (second compound 0.0316 µM, first compound 0.3 µM): 31.1%
- viability, T/C (second compound 0.0316 µM, first compound 0.949 µM): 20.4%
- viability, T/C (second compound 0.0316 µM, first compound 3 µM): 22.9%
- viability, T/C (second compound 0.1 µM, first compound 0.00949 µM): 73.7%
- viability, T/C (second compound 0.1 µM, first compound 0.03 µM): 44.7%
- viability, T/C (second compound 0.1 µM, first compound 0.0949 µM): 41.4%
- viability, T/C (second compound 0.1 µM, first compound 0.3 µM): 25.8%
- viability, T/C (second compound 0.1 µM, first compound 0.949 µM): 23.6%
- viability, T/C (second compound 0.1 µM, first compound 3 µM): 17.2%
- viability, T/C (second compound 0.316 µM, first compound 0.00949 µM): 62.9%
- viability, T/C (second compound 0.316 µM, first compound 0.03 µM): 48.5%
- viability, T/C (second compound 0.316 µM, first compound 0.0949 µM): 36.9%
- viability, T/C (second compound 0.316 µM, first compound 0.3 µM): 23%
- viability, T/C (second compound 0.316 µM, first compound 0.949 µM): 18.6%
- viability, T/C (second compound 0.316 µM, first compound 3 µM): 17.3%
- viability, T/C (second compound 1 µM, first compound 0.00949 µM): 52.9%
- viability, T/C (second compound 1 µM, first compound 0.03 µM): 37%
- viability, T/C (second compound 1 µM, first compound 0.0949 µM): 26.4%
- viability, T/C (second compound 1 µM, first compound 0.3 µM): 19.4%
- viability, T/C (second compound 1 µM, first compound 0.949 µM): 14.2%
- viability, T/C (second compound 1 µM, first compound 3 µM): 12.6%
- viability, T/C (second compound 3.16 µM, first compound 0.00949 µM): 30.8%
- viability, T/C (second compound 3.16 µM, first compound 0.03 µM): 39.6%
- viability, T/C (second compound 3.16 µM, first compound 0.0949 µM): 19.6%
- viability, T/C (second compound 3.16 µM, first compound 0.3 µM): 17.2%
- viability, T/C (second compound 3.16 µM, first compound 0.949 µM): 18.5%
- viability, T/C (second compound 3.16 µM, first compound 3 µM): 11.1%
- viability, T/C (second compound 10 µM, first compound 0.00949 µM): 28.7%
- viability, T/C (second compound 10 µM, first compound 0.03 µM): 20.5%
- viability, T/C (second compound 10 µM, first compound 0.0949 µM): 17.2%
- viability, T/C (second compound 10 µM, first compound 0.3 µM): 14.8%
- viability, T/C (second compound 10 µM, first compound 0.949 µM): 14.8%
- viability, T/C (second compound 10 µM, first compound 3 µM): 12.1%
